Source: ChEMBL document CHEMBL1138108, “Syntheses and evaluation of novel fatty acid-second-generation taxoid conjugates as promising anticancer agents” (Bioorg Med Chem Lett, 2006)
Activity calls are given as the source filed them. No cut-off for these calls is given here.

Columns and labels:
[1] = test system: MCF7S; experiment: Cytotoxicity against human mammary tumor cell line MCF7-S; assay type: functional, cell-based
[2] = test system: MCF7R; experiment: Cytotoxicity against human mammary tumor cell line MCF7-R; assay type: functional, cell-based
[3] = test system: A121; experiment: Efficacy against Pgp- human ovarian tumor xenograft A121 in SCID mice at 90 mg/kg, iv
[4] = test system: DLD-1; experiment: Efficacy against Pgp+ human colon tumor xenograft DLD1 in SCID mice at 240 mg/kg, iv; assay type: functional, organism-based; parameters: dose 240 mg/kg
[5] = test system: DLD-1; experiment: Efficacy against Pgp+ human colon tumor xenograft DLD1 in SCID mice at 75 mg/kg, iv; assay type: functional, organism-based; parameters: dose 75 mg/kg

| SMILES | IC50 [1] [nM] | IC50 [2] [nM] | Activity [3] | Activity [4] | Activity [5] |
| --- | --- | --- | --- | --- | --- |
| CCC(=O)O[C@H]1C(=O)[C@@]2(C)[C@H]([C@H](OC(=O)c3ccccc3)[C@]3(O)C[C@H](OC(=O)[C@H](O)[C@H](CC(C)C)NC(=O)OC(C)(C)C)C(C)=C1C3(C)C)[C@]1(OC(C)=O)CO[C@@H]1C[C@@H]2O | 0.35 | 5.1 | – | – | – |
| CC/C=C\C/C=C\C/C=C\C/C=C\C/C=C\C/C=C/CCC(=O)O[C@@H](C(=O)O[C@H]1C[C@@]2(O)[C@@H](OC(=O)c3ccccc3)C3[C@](C)(C(=O)[C@H](OC(=O)N(C)C)C(=C1C)C2(C)C)[C@@H](O)C[C@H]1OC[C@@]31OC(C)=O)[C@H](C=C(C)C)NC(=O)OC(C)(C)C (some centres not stated) | – | – | Active | – | – |
| CC/C=C\C/C=C\C/C=C\C/C=C\C/C=C\C/C=C/CCC(=O)O[C@@H](C(=O)O[C@H]1C[C@@]2(O)[C@@H](OC(=O)c3ccccc3)C3[C@](C)(C(=O)[C@H](OC(C)=O)C(=C1C)C2(C)C)[C@@H](O)C[C@H]1OC[C@@]31OC(C)=O)[C@@H](NC(=O)c1ccccc1)c1ccccc1 (some centres not stated) | – | – | – | inactive | – |
| CC/C=C\C/C=C\C/C=C\CCCCCCCC(=O)O[C@@H](C(=O)O[C@H]1C[C@@]2(O)[C@@H](OC(=O)c3ccccc3)C3[C@](C)(C(=O)[C@H](OC(=O)CC)C(=C1C)C2(C)C)[C@@H](O)C[C@H]1OC[C@@]31OC(C)=O)[C@H](C=C(C)C)NC(=O)OC(C)(C)C (some centres not stated) | – | – | – | – | Active |
| CCCCC/C=C\C/C=C\CCCCCCCC(=O)O[C@@H](C(=O)O[C@H]1C[C@@]2(O)[C@@H](OC(=O)c3ccccc3)C3[C@](C)(C(=O)[C@H](OC(=O)CC)C(=C1C)C2(C)C)[C@@H](O)C[C@H]1OC[C@@]31OC(C)=O)[C@H](C=C(C)C)NC(=O)OC(C)(C)C (some centres not stated) | – | – | – | – | Active |
| CC(=O)O[C@@]12CO[C@@H]1C[C@H](O)[C@@]1(C)C(=O)[C@H](O)C3=C(C)[C@@H](OC(=O)[C@H](O)[C@@H](NC(=O)OC(C)(C)C)c4ccccc4)C[C@@](O)([C@@H](OC(=O)c4ccccc4)[C@H]21)C3(C)C [DOCETAXEL] | 1 | 723 | – | – | – |
| COC(=O)O[C@H]1C(=O)[C@@]2(C)C([C@H](OC(=O)c3ccccc3)[C@]3(O)C[C@H](OC(=O)[C@H](O)[C@H](C=C(C)C)NC(=O)OC(C)(C)C)C(C)=C1C3(C)C)[C@]1(OC(C)=O)CO[C@@H]1C[C@@H]2O (some centres not stated) | 0.14 | 9.7 | – | – | – |
| CC(=O)O[C@@]12CO[C@@H]1C[C@H](O)[C@@]1(C)C(=O)[C@H](OC(=O)C3CC3)C3=C(C)[C@@H](OC(=O)[C@H](O)[C@H](CC(C)C)NC(=O)OC(C)(C)C)C[C@@](O)([C@@H](OC(=O)c4ccccc4)C12)C3(C)C (some centres not stated) | 0.51 | 7.9 | – | – | – |
| CC(=O)O[C@H]1C(=O)[C@@]2(C)[C@H]([C@H](OC(=O)c3ccccc3)[C@]3(O)C[C@H](OC(=O)[C@H](O)[C@@H](NC(=O)c4ccccc4)c4ccccc4)C(C)=C1C3(C)C)[C@]1(OC(C)=O)CO[C@@H]1C[C@@H]2O [PACLITAXEL] | 1.7 | 550 | – | – | – |
| CC(=O)O[C@@]12CO[C@@H]1C[C@H](O)[C@@]1(C)C(=O)[C@H](OC(=O)C3CC3)C3=C(C)[C@@H](OC(=O)[C@H](O)[C@H](C=C(C)C)NC(=O)OC(C)(C)C)C[C@@](O)([C@@H](OC(=O)c4ccccc4)[C@H]21)C3(C)C | 0.2 | 3.9 | – | Active | – |
| CC(=O)O[C@@]12CO[C@@H]1C[C@H](O)[C@@]1(C)C(=O)[C@H](OC(=O)N(C)C)C3=C(C)[C@@H](OC(=O)[C@H](O)[C@H](C=C(C)C)NC(=O)OC(C)(C)C)C[C@@](O)([C@@H](OC(=O)c4ccccc4)C12)C3(C)C (some centres not stated) | 0.13 | 7.4 | – | – | – |
| CCC(=O)O[C@H]1C(=O)[C@@]2(C)[C@H]([C@H](OC(=O)c3ccccc3)[C@]3(O)C[C@H](OC(=O)[C@H](O)[C@H](C=C(C)C)NC(=O)OC(C)(C)C)C(C)=C1C3(C)C)[C@]1(OC(C)=O)CO[C@@H]1C[C@@H]2O | 0.18 | 4 | – | Active | – |
